Results published in paper PMC10857328, “Utilization of Biopolymer-Based Lutein Emulsion as an Effective Delivery System to Improve Lutein Bioavailability in Neonatal Rats” (Nutrients, 2024).
Where two headings read alike, the source gives them in different places. Marks after values point to notes of the source that are not given here.

How the values were obtained:
[1] = Daily dosing study 2 (maternal standard chow diet containing lutein): serum and tissue lutein concentrations; type: in vivo, neonatal Sprague-Dawley rats; conditions: 2 mg/kg daily oral P5-P18
Description: (§1) Serum and tissue lutein concentration was determined using an ultra-performance liquid chromatography (UPLC) system (Waters, Milford, MA, USA) equipped with a photo-diode array detector (PDA)/MS/MS, according to our well-established methods with slight modification. As for the serum, 100 μL of the sample was incubated with 2 mL of 100% ethanol at room temperature for an hour for lipid extraction. For the tissues, ~0.1 g of the sample was weighed, homogenized, and incubated with 2 mL of 100% ethanol at room temperature for an hour. An amount of 1 mL of 5% (w/v) potassium hydroxide was added to the sample and incubated in a water bath at 60 °C for 45 min for saponification. Upon saponification, samples were allowed to cool for about 15 min, and then an addition of 4 mL of hexane containing 0.1% butylated hydroxytoluene (w/v) and 2 mL of deionized water was added. The mixture was vortexed for 20 s and centrifuged at 1600 rpm at 25 °C for 15 min. The upper layer was collected following centrifugation and dried under nitrogen at 37 °C. The dried sample was then rinsed twice with hexane, dried, and reconstituted with 100 µL of acetonitrile-methanol. The reconstituted sample was centrifuged for 2 min to remove any possible precipitation. For UPLC analysis, 10 µL of the sample was injected into the Waters Acquity UPLC HSS T3 column. Solvent A was acetonitrile: methanol (50:50, v/v), and solvent B was 100% isopropanol. The mobile phase was made up of solvent A and solvent B in a volume ratio of 95:5 (v/v). The flow rate was set as 0.5 mL/min, and the column temperature was maintained at 35 °C. The detection wavelength was set at 446 nm. Retinyl acetate (Sigma-Aldrich, St. Louis, MO, USA) was used as the internal standard. To mimic the human dietary intake of lutein, daily dosing study 2 was conducted (Figure 1C). In this study, maternal rats consumed a standard rodent chow diet containing lutein from ingredients (i.e., ground corn) during pregnancy and lactation (Figure S2). The study design was similar to that of daily dosing study 1, except that a negative control group, in which rat pups were given olive oil from P5 to P18, was included in this study. Serum and tissue lutein concentrations were analyzed using the methods described in Section 2.3.2.

[2] = encapsulation technique Polymer, Mice, cited from earlier work
[3] = Acute dosing study: serum lutein kinetics, pharmacokinetic parameters and bioavailability; type: in vivo, neonatal Sprague-Dawley rats; conditions: 10 mg/kg body weight of lutein; for Serum lutein concentration: P10 pups
Description: To determine the bioavailability of lutein in neonatal Sprague-Dawley rats, an acute dosing study was conducted. The procedure was approved by the Institutional Animal Care and Use Committee of the University of Alabama (Number: 21-08-4864, 23 September 2021). On postnatal day 10 (P10), neonatal rats were randomly selected from litters and received a single dose of either free lutein (i.e., lutein ester dissolved in olive oil) or lutein emulsion, both containing 10 mg/kg body weight of lutein. The dose was administered to the pup’s mouth via a pipette. The concentration of lutein ester in the oil phase was 0.004 g/mL. The lutein dosage was selected based on our pilot study and previous studies. It is higher than the dosage used in human newborns but is considered acceptable and safe to be used in pharmacokinetic studies in rodent models. At 0.5 h, 1 h, 2 h, 4 h, 6 h, 12 h, and 24 h after dosing, pups (n = 3/time point/group) were euthanized, and blood, liver, spleen, brain, and eye were collected. Serum was obtained by centrifuging blood samples and tissues were stored at −80 °C until time of analysis. A group of rat pups (n = 3) not receiving treatments were used to measure the baseline lutein concentrations. Throughout the study, maternal rats consumed a purified diet with no lutein (D19120501, Research Diets Inc, New Brunswick, NJ, USA) (Table 1).
as §1, with “standard.” for “standard. To mimic the human dietary intake of lutein, daily dosing study 2 was conducted (Figure 1C). In this study, maternal rats consumed a standard rodent chow diet containing lutein from ingredients (i.e., ground corn) during pregnancy and lactation (Figure S2). The study design was similar to that of daily dosing study 1, except that a negative control group, in which rat pups were given olive oil from P5 to P18, was included in this study. Serum and tissue lutein concentrations were analyzed using the methods described in Section 2.3.2.”
Bioavailability is defined as the rate and range of the active compound to the systemic circulation through a single oral administration. It can be evaluated by pharmacokinetic parameters derived from the compound kinetic curve (serum concentration vs. time). In the acute dosing study, pharmacokinetic parameters, including maximum lutein concentration (Cmax), time to reach Cmax (Tmax), and area under the time-concentration curve (AUC0–24) were determined. Cmax and Tmax were read directly from the serum lutein kinetic curve. The area under the time-concentration curve (AUC0–24) was calculated by trapezoid rule with linear interpolation using GraphPad Prism 8.0 (San Diego, CA, USA). […]

[4] = maternal standard chow diet containing lutein
[5] = maternal standard chow diet containing lutein, listed as free lutein

With Lutein ester [Free Lutein] the “Lutein concentration, BAT” value [1, 4] was 0.026 ± 0.014 ^a nmol/g, the “Lutein concentration, WAT” value [1, 4] was 0.34 ± 0.23 ^a nmol/g and the “Lutein concentration, brain” value [1, 4] was 0.06 ± 0.04 ^ab nmol/g. The “Lutein concentration, eye” value [1, 4] was 0.01 ± 0.003 ^c nmol/g, the “Lutein concentration, kidney” value [1, 4] was 0.12 ± 0.03 ^b nmol/g and the “Lutein concentration, liver” value [1, 4] was 1.23 ± 0.38 ^bc nmol/g. For the same substance, the “Lutein concentration, lung” value [1, 4] was 0.043 ± 0.007 ^a nmol/g, the Lutein concentration, serum [1, 4] was 17.6 ± 4.39 nM and the “Lutein concentration, spleen” value [1, 4] was 0.58 ± 0.29 ^b nmol/g. The “Lutein concentration, serum” value ([1]; maternal standard chow diet containing lutein (Table 4)) was 17.61 ± 4.39 ^b nmol/L, the “Lutein concentration, BAT” value [1, 5] was 0.026 ± 0.014 nmol/g and the “Lutein concentration, WAT” value [1, 5] was 0.34 ± 0.23 nmol/g. The “Lutein concentration, brain” value [1, 5] was 0.06 ± 0.04 nmol/g, the “Lutein concentration, eye” value [1, 5] was 0.01 ± 0.003 nmol/g and the “Lutein concentration, kidney” value [1, 5] was 0.12 ± 0.03 nmol/g. The “Lutein concentration, liver” value [1, 5] was 1.23 ± 0.38 nmol/g, the “Lutein concentration, lung” value [1, 5] was 0.043 ± 0.007 nmol/g and the “Tmax (serum)” value ([2]; ref Arunkumar et al. (2015) [42]) was 4 h. The “Tmax (serum)” value ([2]; ref Ranganathan et al. (2019) [57]) was 4 h, the Serum lutein concentration ([3]; 0.5 h after single oral dose) was 0.00 ± 0.00 nmol/L and the Serum lutein concentration ([3]; 6 h after single oral dose) was 132.91 ± 64.96 nmol/L. For the same substance, the Serum lutein concentration ([3]; 24 h after single oral dose) was 43.16 ± 8.53 nmol/L, the “Tmax, time to reach Cmax (serum)” value ([3]; single oral dose) was 4 h and the Cmax ([3]; single oral dose, read-out: Cmax, maximum serum lutein concentration) was 145 ± 49 nM. The “AUC0–24” value ([3]; single oral dose, serum) was 1987 ± 247.90 nmol/L∗h.
